Experimental data: ChEMBL document CHEMBL5257073, “Development of [18F]Thiazolylacylaminopyridine-Based Glycogen synthase Kinase-3β ligands for positron emission tomography imaging” (Bioorg Med Chem Lett, 2023)

Assays:
[1] = molecular target: Glycogen synthase kinase-3 beta (Homo sapiens, UniProt P49841); assay: Inhibition of GSK-3beta (unknown origin)
[2] = Biodistribution in heart of iv dosed KM mouse assessed as radioactivity after 2 mins by imaging analysis; type: ADME, organism-based; conditions: in vivo
[3] = Biodistribution in brain of iv dosed KM mouse assessed as radioactivity after 10 mins by imaging analysis; type: ADME, organism-based; conditions: in vivo
[4] = Biodistribution in pancreas of iv dosed KM mouse assessed as radioactivity after 2 mins by imaging analysis; type: ADME, organism-based; conditions: in vivo
[5] = Biodistribution in lung of iv dosed KM mouse assessed as radioactivity after 30 mins by imaging analysis; type: ADME, organism-based; conditions: in vivo, 0.5 h
[6] = Biodistribution in pancreas of iv dosed KM mouse assessed as radioactivity after 10 mins by imaging analysis; type: ADME, organism-based; conditions: in vivo
[7] = Biodistribution in lung of iv dosed KM mouse assessed as radioactivity after 2 mins by imaging analysis; type: ADME, organism-based; conditions: in vivo
[8] = Biodistribution in lung of iv dosed KM mouse assessed as radioactivity after 60 mins by imaging analysis; type: ADME, organism-based; conditions: in vivo, 1 h
[9] = Biodistribution in spleen of iv dosed KM mouse assessed as radioactivity after 10 mins by imaging analysis; type: ADME, organism-based; conditions: in vivo
[10] = Biodistribution in brain of iv dosed KM mouse assessed as radioactivity after 60 mins by imaging analysis; type: ADME, organism-based; conditions: in vivo, 1 h
[11] = Stability in iv dosed KM mouse assessed as radioactivity of parent compound remaining in blood after 1 hrs by radio-HPLC analysis; type: ADME, organism-based; conditions: in vivo
[12] = Biodistribution in lung of iv dosed KM mouse assessed as radioactivity after 10 mins by imaging analysis; type: ADME, organism-based; conditions: in vivo
[13] = Biodistribution in heart of iv dosed KM mouse assessed as radioactivity after 10 mins by imaging analysis; type: ADME, organism-based; conditions: in vivo
[14] = Biodistribution in brain of iv dosed KM mouse assessed as radioactivity after 30 mins by imaging analysis; type: ADME, organism-based; conditions: in vivo, 0.5 h
[15] = Biodistribution in heart of iv dosed KM mouse assessed as radioactivity after 60 mins by imaging analysis; type: ADME, organism-based; conditions: in vivo, 1 h
[16] = Biodistribution in kidney of iv dosed KM mouse assessed as radioactivity after 10 mins by imaging analysis; type: ADME, organism-based; conditions: in vivo
[17] = Biodistribution in liver of iv dosed KM mouse assessed as radioactivity after 60 mins by imaging analysis; type: ADME, organism-based; conditions: in vivo, 1 h
[18] = Biodistribution in bone of iv dosed KM mouse assessed as radioactivity after 30 mins by imaging analysis; type: ADME, organism-based, Bone element; conditions: in vivo, 0.5 h
[19] = Biodistribution in heart of iv dosed KM mouse assessed as radioactivity after 30 mins by imaging analysis; type: ADME, organism-based; conditions: in vivo, 0.5 h
[20] = Biodistribution in spleen of iv dosed KM mouse assessed as radioactivity after 60 mins by imaging analysis; type: ADME, organism-based; conditions: in vivo, 1 h
[21] = Biodistribution in spleen of iv dosed KM mouse assessed as radioactivity after 2 mins by imaging analysis; type: ADME, organism-based; conditions: in vivo
[22] = Biodistribution in kidney of iv dosed KM mouse assessed as radioactivity after 30 mins by imaging analysis; type: ADME, organism-based; conditions: in vivo, 0.5 h
[23] = Biodistribution in bone of iv dosed KM mouse assessed as radioactivity after 2 mins by imaging analysis; type: ADME, organism-based, Bone element; conditions: in vivo
[24] = Biodistribution in spleen of iv dosed KM mouse assessed as radioactivity after 30 mins by imaging analysis; type: ADME, organism-based; conditions: in vivo, 0.5 h
[25] = Biodistribution in muscle of iv dosed KM mouse assessed as radioactivity after 30 mins by imaging analysis; type: ADME, organism-based, Muscle tissue; conditions: in vivo, 0.5 h
[26] = Biodistribution in blood of iv dosed KM mouse assessed as radioactivity after 10 mins by imaging analysis; type: ADME, organism-based; conditions: in vivo
[27] = Biodistribution in small intestine of iv dosed KM mouse assessed as radioactivity after 30 mins by imaging analysis; type: ADME, organism-based; conditions: in vivo, 0.5 h
[28] = Biodistribution in stomach of iv dosed KM mouse assessed as radioactivity after 2 mins by imaging analysis; type: ADME, organism-based; conditions: in vivo
[29] = Biodistribution in brain of iv dosed KM mouse assessed as radioactivity after 2 mins by imaging analysis; type: ADME, organism-based; conditions: in vivo
[30] = Biodistribution in kidney of iv dosed KM mouse assessed as radioactivity after 60 mins by imaging analysis; type: ADME, organism-based; conditions: in vivo, 1 h
[31] = Stability in mouse plasma assessed as parent compound remaining after 4 hrs by radio-HPLC analysis; type: ADME, cell-free; conditions: read-out: Stability
[32] = Biodistribution in blood of iv dosed KM mouse assessed as radioactivity after 60 mins by imaging analysis; type: ADME, organism-based; conditions: in vivo, 1 h
[33] = Lipophilicity, logD of compound; type: physicochemical; conditions: octanol/water
[34] = Biodistribution in small intestine of iv dosed KM mouse assessed as radioactivity after 10 mins by imaging analysis; type: ADME, organism-based; conditions: in vivo
[35] = Biodistribution in liver of iv dosed KM mouse assessed as radioactivity after 2 mins by imaging analysis; type: ADME, organism-based; conditions: in vivo
[36] = Biodistribution in stomach of iv dosed KM mouse assessed as radioactivity after 10 mins by imaging analysis; type: ADME, organism-based; conditions: in vivo
[37] = Biodistribution in stomach of iv dosed KM mouse assessed as radioactivity after 30 mins by imaging analysis; type: ADME, organism-based; conditions: in vivo, 0.5 h
[38] = Biodistribution in muscle of iv dosed KM mouse assessed as radioactivity after 2 mins by imaging analysis; type: ADME, organism-based, Muscle tissue; conditions: in vivo
[39] = Biodistribution in liver of iv dosed KM mouse assessed as radioactivity after 30 mins by imaging analysis; type: ADME, organism-based; conditions: in vivo, 0.5 h
[40] = Biodistribution in small intestine of iv dosed KM mouse assessed as radioactivity after 60 mins by imaging analysis; type: ADME, organism-based; conditions: in vivo, 1 h
[41] = Biodistribution in muscle of iv dosed KM mouse assessed as radioactivity after 60 mins by imaging analysis; type: ADME, organism-based, Muscle tissue; conditions: in vivo, 1 h
[42] = Biodistribution in liver of iv dosed KM mouse assessed as radioactivity after 10 mins by imaging analysis; type: ADME, organism-based; conditions: in vivo
[43] = Biodistribution in blood of iv dosed KM mouse assessed as radioactivity after 2 mins by imaging analysis; type: ADME, organism-based; conditions: in vivo
[44] = Biodistribution in pancreas of iv dosed KM mouse assessed as radioactivity after 60 mins by imaging analysis; type: ADME, organism-based; conditions: in vivo, 1 h
[45] = Biodistribution in pancreas of iv dosed KM mouse assessed as radioactivity after 30 mins by imaging analysis; type: ADME, organism-based; conditions: in vivo, 0.5 h
[46] = Biodistribution in bone of iv dosed KM mouse assessed as radioactivity after 10 mins by imaging analysis; type: ADME, organism-based, Bone element; conditions: in vivo
[47] = Biodistribution in stomach of iv dosed KM mouse assessed as radioactivity after 60 mins by imaging analysis; type: ADME, organism-based; conditions: in vivo, 1 h
[48] = Biodistribution in small intestine of iv dosed KM mouse assessed as radioactivity after 2 mins by imaging analysis; type: ADME, organism-based; conditions: in vivo
[49] = Biodistribution in bone of iv dosed KM mouse assessed as radioactivity after 60 mins by imaging analysis; type: ADME, organism-based, Bone element; conditions: in vivo, 1 h
[50] = Biodistribution in muscle of iv dosed KM mouse assessed as radioactivity after 10 mins by imaging analysis; type: ADME, organism-based, Muscle tissue; conditions: in vivo
[51] = Biodistribution in blood of iv dosed KM mouse assessed as radioactivity after 30 mins by imaging analysis; type: ADME, organism-based; conditions: in vivo, 0.5 h
[52] = Biodistribution in kidney of iv dosed KM mouse assessed as radioactivity after 2 mins by imaging analysis; type: ADME, organism-based; conditions: in vivo

Glycogen synthase kinase-3 beta, sequence (P49841 whole entry): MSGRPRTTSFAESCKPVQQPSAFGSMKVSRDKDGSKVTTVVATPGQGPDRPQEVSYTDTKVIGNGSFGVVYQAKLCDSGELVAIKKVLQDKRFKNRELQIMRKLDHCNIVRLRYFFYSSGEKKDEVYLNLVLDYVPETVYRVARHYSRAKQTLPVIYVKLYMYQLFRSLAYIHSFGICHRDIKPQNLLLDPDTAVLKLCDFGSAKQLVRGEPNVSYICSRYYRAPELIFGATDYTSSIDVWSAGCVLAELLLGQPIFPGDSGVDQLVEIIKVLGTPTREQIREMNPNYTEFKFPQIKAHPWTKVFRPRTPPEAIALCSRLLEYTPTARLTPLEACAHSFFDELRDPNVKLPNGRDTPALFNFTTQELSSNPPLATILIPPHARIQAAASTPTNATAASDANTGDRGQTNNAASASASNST

CN(C)C(=O)c1sc(-c2ccnc(NC(=O)C3CC3)c2)nc1OCCOCCF
IC50 [1]: 149 nM

CNC(=O)c1sc(-c2ccnc(NC(=O)C3CC3)c2)nc1OCC[18F]
Drug uptake [2]: 8.03 % ID/g | Drug uptake [3]: 0.77 % ID/g | Drug uptake [4]: 7.32 % ID/g | Drug uptake [5]: 2.87 % ID/g | Drug uptake [6]: 5.07 % ID/g | Drug uptake [7]: 7.28 % ID/g | Drug uptake [8]: 1.54 % ID/g | Drug uptake [9]: 4.48 % ID/g | Drug uptake [10]: 0.31 % ID/g | Stability [11]: 90% | Drug uptake [12]: 4.5 % ID/g | Drug uptake [13]: 5.44 % ID/g | Drug uptake [14]: 0.42 % ID/g | Drug uptake [15]: 1.73 % ID/g | Drug uptake [16]: 14.4 % ID/g | Drug uptake [17]: 15.27 % ID/g | Drug uptake [18]: 2.05 % ID/g | Drug uptake [19]: 3.41 % ID/g | Drug uptake [20]: 1.4 % ID/g | Drug uptake [21]: 5.28 % ID/g | Drug uptake [22]: 13.09 % ID/g | Drug uptake [23]: 2.83 % ID/g | Drug uptake [24]: 2.91 % ID/g | Drug uptake [25]: 1.38 % ID/g | Drug uptake [26]: 3.5 % ID/g | Drug uptake [27]: 24.4 % ID/g | Drug uptake [28]: 2.53 % ID/g | Drug uptake [29]: 1.68 % ID/g | Drug uptake [30]: 7.11 % ID/g | remaining at 4 h [31]: > 95% | Drug uptake [32]: 1.11 % ID/g | logD [33]: 2.24 | Drug uptake [34]: 11.16 % ID/g | Drug uptake [35]: 22.28 % ID/g | Drug uptake [36]: 3.29 % ID/g | Drug uptake [37]: 2.92 % ID/g | Drug uptake [38]: 3.45 % ID/g | Drug uptake [39]: 23.75 % ID/g | Drug uptake [40]: 31.31 % ID/g | Drug uptake [41]: 0.87 % ID/g | Drug uptake [42]: 32.93 % ID/g | Drug uptake [43]: 5.64 % ID/g | Drug uptake [44]: 1.76 % ID/g | Drug uptake [45]: 3.05 % ID/g | Drug uptake [46]: 2.42 % ID/g | Drug uptake [47]: 1.88 % ID/g | Drug uptake [48]: 9.74 % ID/g | Drug uptake [49]: 2.91 % ID/g | Drug uptake [50]: 2.18 % ID/g | Drug uptake [51]: 2.18 % ID/g | Drug uptake [52]: 16.09 % ID/g

O=C(Nc1cc(-c2nc(OCC3CC3)c(C(=O)N3CC(F)C3)s2)ccn1)C1CC1
IC50 [1]: 42.1 nM

CCOC(=O)c1sc(-c2ccnc(NC(=O)C3CC3)c2)nc1OCCOCCOCCF
IC50 [1]: 345 nM

CCOC(=O)c1sc(-c2ccnc(NC(=O)C3CC3)c2)nc1OCCF
IC50 [1]: 68.1 nM

O=C(NCCF)c1sc(-c2ccnc(NC(=O)C3CC3)c2)nc1OCC1CC1
IC50 [1]: 18.2 nM

CCOC(=O)c1sc(-c2ccnc(NC(=O)C3CC3)c2)nc1OCCOCCF
IC50 [1]: 422 nM

CNC(=O)c1sc(-c2ccnc(NC(=O)C3CC3)c2)nc1OCCF
IC50 [1]: 6 nM

CN(C)C(=O)c1sc(-c2ccnc(NC(=O)C3CC3)c2)nc1OCCOCCOCCF
IC50 [1]: 426 nM

CN(C)C(=O)c1sc(-c2ccnc(NC(=O)C3CC3)c2)nc1OCCF
IC50 [1]: 152 nM

CNC(=O)c1sc(-c2ccnc(NC(=O)C3CC3)c2)nc1OCCOCCF
IC50 [1]: 36.5 nM
